Experimental data: patent publication US20250304623A1, “PEPTIDES FOR INTRACELLULAR DELIVERY” (UNIVERSIDADE DE SANTIAGO DE COMPOSTELA, priority 2022, published 2025)
Starred links: 1 amine or outer side, 2 acyl side, 3 side chain; linkers in the order of their positions; H or OH if unused. Residues, ends and D or L forms follow the SMILES beside them. Groups on a side chain read outwards from the residue. *: point of attachment. Glutaryl = O=C(CCCC(=O)[*:2])[*:1]; NHNH2 = NN*

Columns and labels:
ARPE19 cells = experiment: EGFP mRNA delivery, robotic library screening, ARPE19; assay type: cell-based
Method: Cells were seeded in a 96 well plate the day before the experiment at a concentration of 50,000 cell/mL (100 μL/w) in DMEM+10% FBS+1% Gln-Abt. For robotic library screening, the delivery of EGFP-mRNA (from TriLink, fully substituted with 5-methoxyuridine, capped and polyadenylated; TriLink, CleanCap® EGFP mRNA (5moU), ref. L-7201) in six different cell lines was performed. Amphiphilic molecule stock solutions were prepared in DMSO as described above and diluted in DMEM to afford a range of concentrations. The solutions of EGFP-mRNA/amphiphilic molecule complexes were freshly prepared prior to the transfection experiments. 35 μL of the corresponding amphiphile were added to 10 μL of a solution of EGFP-mRNA at 10 ng/μL in DMEM. The mixture was shaken for 30 min at room temperature before the addition to the cells. The cell medium was aspirated, and cells were washed with PBS twice. Cells were covered with 39 μL of DMEM and 11 μL of the complex's solution were added to the cells and incubated for 4 h (final concentration of peptide=2.5, 5 and 10 μM; final concentration of EGFP-mRNA=25 ng/well). After the incubation, the medium was replaced by 100 μL of fresh DMEM supplemented with 10% FBS. The total EGFP fluorescence was quantified after 72 h in a well plate reader. Amphiphile transfection efficiency was compared and normalized to Lipofectamine® MessengerMax efficiency (value of 1 in Tables 1-5 and 7; double underlined numbers). All experiments were done in triplicate.
(§1) Tables 1-7: RLuc (pDNA) or EGFP (mRNA) expression levels were normalized to Lipofectamine reagents (value=1) and expressed as fold-times signal increase. In the case of siRNA, the siRNA treated cells fluorescence was compared with siMOCK control fluorescence, while Cas9-RNP mediated knockout was measured against the fluorescence of untreated cells. In both siRNA and Cas9-RNP, values are expressed as % fluorescence reduction. Amphiphile concentration was 5 μM in all cases. All experiments were performed in triplicate.
Tables 14-19 show the mean (triplicates) fluorescence intensity measured after the transfection of EGFP mRNA by different amphiphiles at different concentrations in a variety of cell lines. Background fluorescence values, accounted by untreated control cells, were subtracted for processing.

[1] = system: Hela cells expressing EGFP; experiment: Cas9-RNP delivery against EGFP (gene editing, plate reader), HeLa; assay type: cell-based; settings: for % GFP silencing due to gene editing (Cas9-RNP): HeLa
Method: To generate an EGFP expressing HeLa cell line, HeLa cells were transfected with EGFP pDNA (pEGFP-C1, Clontech) and stable transfectants were selected with 400 μg/mL of G-418 (Millipore). Green clones were selected by epifluorescence microscopy and tested for EGFP expression stability through several passages. […] All other EGFP-expressing cell lines were obtained in a similar way from parent non-EGFP-expressing cell lines.
Cells expressing EGFP were seeded in a 96 well plate the day before the experiment at a concentration of 50,000 cell/mL (100 μL/w) in DMEM+10% FBS+1% Gln-Abt. For robotic library screening, the delivery of Cas9-RNP against EGFP (RNP designed to knock-out the gene encoding for the enhanced green fluorescent protein (EGFP)) was performed. For RNP assembly, 9.2 μL of crRNA and 9.2 μL of tracrRNA were mixed in 211.6 μL of Nuclease-Free Duplex Buffer (IDT), incubated for 5 min at 95° C. and slowly cooled at rt (see I. Lostalé-Seijo, et al. Peptide/Cas9 nanostructures for ribonucleoprotein cell membrane transport and gene edition, Chem. Sci., 2017). Cas9 protein was dissolved in DMEM at a final concentration of 4 μM and equal volumes of the RNA complex and Cas9 were mixed and incubated for 5 min at rt. 75 μL of the corresponding amphiphile concentrations were added to 5 μL of RNP at 2 μM. The mixture was shaken for 30 min at room temperature before the addition to the cells. The cell medium was aspirated, and cells were washed twice with PBS. Cells were covered with 30 μL of DMEM and 20 μL of the RNP/amphiphile complexes were added to the cells (final peptide concentrations=2.5, 5 and 10 μM; final Cas9-RNP concentration=50 nM) and incubated for 4 h. After the incubation, the medium was replaced by 100 μL of fresh DMEM supplemented with 10% FBS. The total EGFP fluorescence was quantified after 72 h in a plate reader (FIG. 2, Table 1 (right) and Table 6). All experiments were done in triplicate.
as §1
Tables 26-31 show the mean (triplicates) percentage of gene editing, accounted by GFP fluorescence intensity decrease (% of reduction), measured after the transfection of Cas9-RNP by different amphiphiles at different concentrations in a variety of cell lines. Background values, accounted by untreated control cells, were subtracted for processing.

[2] = Petroselinyl, 10 μM, Hela cells
[3] = Petroselinyl, 15 μM, Hela cells

Compound	mean fluorescence intensity (EGFP mRNA) (ARPE19 cells; Myristoleyl, 2.5 μM)	mean fluorescence intensity (EGFP mRNA) (ARPE19 cells; Myristoleyl, 5 μM)	mean fluorescence intensity (EGFP mRNA) (ARPE19 cells; Myristoleyl, 10 μM)	mean fluorescence intensity (EGFP mRNA) (ARPE19 cells; Oleyl, 5 μM)	mean fluorescence intensity (EGFP mRNA) (ARPE19 cells; Palmitoleyl, 2.5 μM)	mean fluorescence intensity (EGFP mRNA) (ARPE19 cells; Petroselinyl, 2.5 μM)	mean fluorescence intensity (EGFP mRNA) (ARPE19 cells; Petroselinyl, 5 μM)	mean fluorescence intensity (EGFP mRNA) (ARPE19 cells; Petroselinyl, 10 μM)	percentage of gene editing, GFP fluorescence intensity decrease (% of reduction) ([1]; Dodecanal, 10 μM, HeLa cells) [%]	percentage of gene editing, GFP fluorescence intensity decrease (% of reduction) ([1]; Dodecanal, 15 μM, Hela cells) [%]	percentage of gene editing, GFP fluorescence intensity decrease (% of reduction) ([1]; Myristoleyl, 5 μM, HeLa cells) [%]	percentage of gene editing, GFP fluorescence intensity decrease (% of reduction) ([1]; Myristoleyl, 10 μM, HeLa cells) [%]	percentage of gene editing, GFP fluorescence intensity decrease (% of reduction) ([1]; Myristoleyl, 15 μM, Hela cells) [%]	percentage of gene editing, GFP fluorescence intensity decrease (% of reduction) ([1]; Oleyl, 5 μM, HeLa cells) [%]	percentage of gene editing, GFP fluorescence intensity decrease (% of reduction) ([1]; Oleyl, 10 μM, HeLa cells) [%]	percentage of gene editing, GFP fluorescence intensity decrease (% of reduction) ([1]; Palmitoleyl, 5 μM, HeLa cells) [%]	percentage of gene editing, GFP fluorescence intensity decrease (% of reduction) ([1]; Palmitoleyl, 10 μM, HeLa cells) [%]	percentage of gene editing, GFP fluorescence intensity decrease (% of reduction) ([1]; Petroselinyl, 5 μM, HeLa cells) [%]	percentage of gene editing, GFP fluorescence intensity decrease (% of reduction) [1, 2] [%]	percentage of gene editing, GFP fluorescence intensity decrease (% of reduction) ([1]; Dodecanal, 5 μM, Hela cells) [%]	other results
CC(=O)N[C@@H](CCCNC(=N)N)C(=O)N[C@@H](CCCCNC(=O)CCCC(=O)NN)C(=O)N[C@@H](Cc1c[nH]cn1)C(=O)N[C@@H](CCCNC(=N)N)C(=O)N[C@@H](CCCCNC(=O)CCCC(=O)NN)C(=O)N[C@@H](CCCCNC(=O)CCCC(=O)NN)C(=O)N[C@@H](Cc1c[nH]cn1)C(N)=O [7.3(L-H), Ac-RK*HRK*K*H-NH2] (Ac-RK([Glutaryl-NHNH2])HRK([Glutaryl-NHNH2])K([Glutaryl-NHNH2])H-NH2)	22958	6178	1216	9014	35030	6471	38057	29449	−8	−21	39	22	18	16	13	55	28	46	14	–	mean fluorescence intensity (EGFP mRNA) (ARPE19 cells; Oleyl, 10 μM): 4676; mean fluorescence intensity (EGFP mRNA) (ARPE19 cells; Palmitoleyl, 5 μM): 28077; mean fluorescence intensity (EGFP mRNA) (ARPE19 cells; Palmitoleyl, 10 μM): 4574; percentage of gene editing, GFP fluorescence intensity decrease (% of reduction) ([1]; Oleyl, 15 μM, Hela cells): 22%; percentage of gene editing, GFP fluorescence intensity decrease (% of reduction) ([1]; Palmitoleyl, 15 μM, Hela cells): 17%
Ac-RHLK*RHK*RRLK*RH-NH2 (Ac-RHLKRHKRRLKRH-NH2; not fully specified (residues 4, 7, 11); printed as Ac-RHLK*RHK*RRLK*RH-NH2; also: linker on K* not given here) [13(3His)]	–	393	–	–	–	596	384	508	–	–	18	–	–	–	–	–	–	–	–	–	–
Ac-RHLK*RLK*RRLK*RL-NH2 (Ac-RHLKRLKRRLKRL-NH2; not fully specified (residues 4, 7, 11); printed as Ac-RHLK*RLK*RRLK*RL-NH2; also: linker on K* not given here) [13(Arg-His)]	–	–	–	–	–	–	472	216	78	–	48	85	–	46	73	48	73	23	69	37	% GFP silencing due to gene editing (Cas9-RNP) ([1]; 5 μM, Ole tail): 73%; % GFP silencing due to gene editing (Cas9-RNP) ([1]; 5 μM, Pal tail): 73%; percentage of gene editing, GFP fluorescence intensity decrease (% of reduction) ([1]; Palmitoleyl, 15 μM, Hela cells): 78%; percentage of gene editing, GFP fluorescence intensity decrease (% of reduction) [1, 3]: 80%
Ac-RK*LRK*K*L-NH2 (Ac-RK(NHNH2)LRK(NHNH2)K(NHNH2)L-NH2; not fully specified; printed as Ac-RK*LRK*K*L-NH2; also: K*2,K*5,K*6: native or modified lysine (ε-amide to a linker)) [Peptide 7.3]	44289	10233	2166	4303	34422	25416	5810	5129	2	−3	24	27	25	–	−9	20	13	6	11	10	mean fluorescence intensity (EGFP mRNA) (ARPE19 cells; Dodecanal, 2.5 μM): 9507; mean fluorescence intensity (EGFP mRNA) (ARPE19 cells; Dodecanal, 5 μM): 16576; mean fluorescence intensity (EGFP mRNA) (ARPE19 cells; Dodecanal, 10 μM): 6912; mean fluorescence intensity (EGFP mRNA) (ARPE19 cells; Oleyl, 2.5 μM): 20910; mean fluorescence intensity (EGFP mRNA) (ARPE19 cells; Palmitoleyl, 5 μM): 7527; mean fluorescence intensity (EGFP mRNA) (ARPE19 cells; Palmitoleyl, 10 μM): 7536; percentage of gene editing, GFP fluorescence intensity decrease (% of reduction) [1, 3]: 33%
Ac-RK*LRRK*L-NH2 (Ac-RK(NHNH2)LRRK(NHNH2)L-NH2; not fully specified; printed as Ac-RK*LRRK*L-NH2; also: K*2,K*6: native or modified lysine (ε-amide to a linker)) [Peptide 7.2]	2289	1119	1131	–	–	–	–	–	−22	−26	−7	−18	−6	–	–	–	–	–	–	6	mean fluorescence intensity (EGFP mRNA) (ARPE19 cells; Dodecanal, 2.5 μM): 898; mean fluorescence intensity (EGFP mRNA) (ARPE19 cells; Dodecanal, 5 μM): 436; mean fluorescence intensity (EGFP mRNA) (ARPE19 cells; Dodecanal, 10 μM): 1046
Ac-RRLK*RLLRRLK*RL-NH2 (Ac-RRLK(NHNH2)RLLRRLK(NHNH2)RL-NH2; not fully specified; printed as Ac-RRLK*RLLRRLK*RL-NH2; also: K*4,K*11: native or modified lysine (ε-amide to a linker)) [Peptide 13.2]	–	–	–	–	–	–	–	–	–	–	–	–	–	21	62	–	–	–	–	–	–
